Target: T1, rabbit reticulocyte 15-LO (Oryctolagus cuniculus, UniProt P12530)
T1 construct: rabbit reticulocyte 15-LO; from tissue; host or cells: rabbit reticulocytes
T1 sequence (P12530 1-663): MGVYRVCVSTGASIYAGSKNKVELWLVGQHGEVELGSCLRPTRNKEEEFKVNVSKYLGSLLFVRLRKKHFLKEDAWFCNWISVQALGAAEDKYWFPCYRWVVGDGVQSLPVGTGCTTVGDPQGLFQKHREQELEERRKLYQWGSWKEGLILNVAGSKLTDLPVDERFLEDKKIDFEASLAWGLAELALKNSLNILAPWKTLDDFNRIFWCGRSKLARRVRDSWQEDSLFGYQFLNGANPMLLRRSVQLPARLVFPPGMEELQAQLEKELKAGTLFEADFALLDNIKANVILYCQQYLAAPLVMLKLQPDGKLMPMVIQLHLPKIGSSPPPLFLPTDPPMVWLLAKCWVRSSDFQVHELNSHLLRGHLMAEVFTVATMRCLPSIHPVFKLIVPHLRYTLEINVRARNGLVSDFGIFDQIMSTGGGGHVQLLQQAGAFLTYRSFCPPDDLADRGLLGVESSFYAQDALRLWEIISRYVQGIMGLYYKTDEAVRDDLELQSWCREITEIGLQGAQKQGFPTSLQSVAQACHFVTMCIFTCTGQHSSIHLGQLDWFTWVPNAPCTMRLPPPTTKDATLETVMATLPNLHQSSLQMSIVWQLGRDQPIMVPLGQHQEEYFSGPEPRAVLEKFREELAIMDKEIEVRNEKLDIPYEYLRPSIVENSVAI
Assay: Colorimetric Assay of 15-LO Inhibition
Type: biochemical
Conditions: colorimetric method
Procedure: The isothiazolones of Formula I are also effective for treating inflammation and atherosclerosis. A characteristic feature of atherosclerosis is the accumulation of cholesteryl ester engorged from foam cells. Foam cells are derived from circulating monocytes which invade artery walls in response to hypercholesterolemia, and mature into tissue macrophages. […] Specifically, representative compounds were evaluated by the methods described by Auerbach, et al., Analytical Biochemistry, 1992;201:375-380. Two in vitro assays were utilized, both utilizing rabbit reticulocyte 15-LO, and linoleic acid as substrate, to enzymatically produce a peroxide oxidation product known as 13(S)-HPODE. N-Benzoyl leucomethylene blue was utilized as a colorimetric reagent for detection and quantification of the peroxide formation. Also, HPLC was utilized to quantify the oxidation following incubation at 4° C. for 10 minutes.
Table 3 gives the concentration of compound required to inhibit 50% of the activity of 15-LO (IC50) when measured by the HPLC method of Auerbach, et al. Table 4 gives the percent inhibition of 15-LO activity when evaluated by the colorimetric method.

| inhibition at 10 µM | Compound |
| --- | --- |
| 65% | COc1ccc(-c2ccc3c(=O)n(CCN(C)C)sc3n2)cc1OC [Example 108] |
| 22% | CN(C)CCn1sc2nc3ccccc3cc2c1=O [Example 109] |

Reference: US5620997A, “Isothiazolones” (Warner-Lambert Company, priority 1995, dated 1997)
